# Columns and labels:
# [1] = tested on: Neutrophil elastase activity in U937 cells; test: Neutrophil elastase activity in U937 cytosolic lysate after incubation with test compound; format: cell-based; settings: Homo sapiens, U-937; U937 cells incubated 48 hours with compound; NE activity in lysate; read-out: Reduction of NE-activity in U937 cells IC50
# Description: Determination of Neutrophil Elastase Activity in U937 Cytosolic Lysate Preparation after Incubation with Test Compound Materials: Optiplate 384F were purchased from PerkinElmer (Prod. No. #6007270). 24 well Nunclon cell culture plates (No. 142475) and 96 well plates (No. 267245) were from Nunc. Dimethylsulfoxid (DMSO) was from Sigma (Prod. No. D8418). Nonidet-P40 (NP40) was from USBiological (Prod. No. N3500) Substrate, specific for Neutrophil elastase, was from Bachem (MeOSuc-Ala-Ala-Pro-Val-AMC; Prod. No. I-1270). Human neutrophil elastase was from Calbiochem (Prod. No. 324681) Buffers: Tris-buffer (100 mM Tris; 1M NaCL; pH 7.5) Tris-buffer+HSA 0.1%; Human Serum Albumin from Calbiochem (Cat#. 126658) Serine-protease buffer (20 mM Tris; 100 mM NaCL; pH 7.5)+0.1% HSA Serine protease lysis buffer: 20 mM Tris-HCL; 100 mM NaCl pH 7.5; +0.2% Nonidet-P40; PBS: phosphate buffered saline, without Ca and Mg, from Gibco Cell Culture: U937 from ECACC (Cat. No. 85011440) cultured in suspension at 37° C. and 5% CO2. Cell density: 0.2-1 Mio. Cells/ml. Medium: RPMI1640 GlutaMAX (No. 61870) with 10% FCS from Gibco Cell Seeding and Treatment: Compounds in 100% DMSO were diluted in Medium (—FCS) with 10% DMSO and further diluted according to the experiment planned. 20 μl of the compound solution was transferred in the respective wells of the 24 well plate and diluted with 2 ml cell suspension/well containing 1′10^5 cells/ml (final concentration of DMSO=0.1%). Compound dilution factor=100 Compounds (up to 7 concentrations) were tested in triplicates with 3 wells for the DMSO 0.1% control, incubated for 48 hours without medium change at 37° C., 5% CO2 and 95% relative to humidity. Cell Harvesting and Cell Lysate:
# Transfer the cell suspension in 2.2 ml Eppendorf cups. Separate cells from medium by centrifugation (400×g; 5 min; RT); discard the supernatant. Resuspend in 1 ml PBS; centrifugation (400×g; 5 min; RT); wash cells twice with PBS. Add 100 μl Serin lysis buffer (ice cold) to the cell pellet; resuspend the pellet and store on ice for 15 minutes. Remove debris by centrifugation at 15000×g for 10 min at 4° C. Transfer 80-100 μl lysate supernatant in 96 well plate and store immediately at −80° C.
# Neutrophil Elastase Activity Assay:
# Frozen lysates were thawn at 37° C. for 10 minutes and stored on ice. Protein content was determined with Bradford protein assay. Lysates were diluted to 0.2-0.5 mg/ml protein in serine protease buffer+HSA.
# Standard: NE (100 μg/ml stocksolution in Tris-buffer; stored at −80° C.) was diluted in Tris-buffer+HSA to 750 ng/ml, and further serially diluted 1:2 for the standard curve.
# Buffer, blank, standard and lysate samples were transferred into 384 well plate
# The increase in fluorescence (Ex360 nm/Em 460 nm) is determined over 30 minutes with a Molecular Device Spectramax M5 Fluorescence Reader. Kinetic Reduction (Vmax units/sec); 4 vmax points. The amount of neutrophil elastase (ng/ml) is calculated using the standard curve and the Spectramax software. The result is interpolated to ng/mg lysate protein using excel formula functions. […] IC50 is calculated using Graphpad Prism; nonlinear fitting (log(inhibitor) vs. response—Variable slope). The IC50 value is interpolated as the concentration of test compound which leads to a neutrophil elastase activity reduction of 50% (relative to the DMSO-treated control).
# [2] = Metabolic stability with human liver microsomes; format: in vitro ADME; settings: pH 7.6; pooled human liver microsomes, 37° C., 1 μM test compound, 1 mg/ml protein, NADPH; read-out: In vitro stability in human liver microsome incubations t1/2
# Description: Determination of Metabolic Stability with Human Liver Microsomes
# The metabolic degradation of the test compound is assayed at 37° C. with pooled human liver microsomes. The final incubation volume of 100 μl per time point contains TRIS buffer pH 7.6 (0.1 M), magnesium chloride (5 mM), microsomal protein (1 mg/ml) and the test compound at a final concentration of 1 μM. Following a short preincubation period at 37° C., the reactions are initiated by addition of beta-nicotinamide adenine dinucleotide phosphate, reduced form (NADPH, 1 mM) and terminated by transfering an aliquot into acetonitrile after different time points. Additionally, the NADPH-independent degradation is monitored in incubations without NADPH, terminated at the last time point. The [%] remaining test compound after NADPH independent incubation is reflected by the parameter c(control) (metabolic stability). The quenched incubations are pelleted by centrifugation (10′000 g, 5 min). An aliquot of the supernatant is assayed by LC-MS/MS for the amount of parent compound.
# The half-life (t1/2 INVITRO) is determined by the slope of the semilogarithmic plot of the concentration-time profile. The intrinsic clearance (CL_[…]) is calculated by considering the amount of protein in the incubation: CL_[…][μl/min/mg protein]=(In 2/(half-life[min]*protein content[mg/ml]))*1′000. The half-life (t1/2 INVITRO) values of selected compounds in the metabolic stability assay described above are listed in the following table
SMILES,IC50 [1] [nM],half-life at 1 μM [2] [h]
"N#C[C@H](Cc1ccc(-c2ccc3c(c2)NC(=O)C3)cc1)NC(=O)[C@H]1NC2CCC1CC2 [Example 2, (2S)—N-[(1S)-cyano-2-[4-(2-oxoindolin-6-yl)phenyl]ethyl]-3-azabicyclo[2.2.2]octane-2-carboxamide]",281,2
CN1C(=O)Cc2ccc(-c3ccc(C[C@@H](C#N)NC(=O)[C@H]4N[C@H]5CC[C@@H]4CC5)cc3)cc21 [Example 4],50,1.47
"N#Cc1ccc(-c2ccc(C[C@@H](C#N)NC(=O)[C@H]3N[C@H]4CC[C@@H]3CC4)cc2)cc1F [Example 7, (2S)—N-[(1S)-1-cyano-2-[4-(4-cyano-3-fluoro-phenyl)phenyl]ethyl]-3-azabicyclo[2.2.2]octane-2-carboxamide]",561,> 2.17
CS(=O)(=O)c1cc(-c2ccc(C[C@@H](C#N)NC(=O)[C@H]3NC4CCC3CC4)cc2)ccc1C#N [Example 8],469,> 2.17
CS(=O)(=O)c1cccc(-c2ccc(C[C@@H](C#N)NC(=O)[C@H]3NC4CCC3CC4)cc2)c1 [Example 10],426,> 2.17
N#C[C@H](Cc1ccc(-c2ccc3c(c2)CNC3=O)cc1)NC(=O)[C@H]1NC2CCC1CC2 [Example 11],328,> 2.17
CS(=O)(=O)Nc1cccc(-c2ccc(C[C@@H](C#N)NC(=O)[C@H]3NC4CCC3CC4)cc2)c1 [Example 12],450,1.07
